Results published in PubChem BioAssay (NCI).
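Tested at 5 concentrations; 48 h exposure; 96-well plates; endpoints linearly interpolated, else capped at highest concentration. GI50 = concentration required for 50% inhibition of growth. TGI: concentration producing complete growth inhibition.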

How the values were obtained:
Assay in all cases: NCI-60 cell line screen, 48 h
[1] = tested on: ACHN renal
[2] = tested on: 786-0 renal
[3] = tested on: OVCAR-4 ovarian
[4] = tested on: OVCAR-5 ovarian
[5] = tested on: RXF 393 renal
[6] = tested on: A498 renal
[7] = tested on: T-47D breast
[8] = tested on: TK-10 renal
[9] = tested on: HS 578T breast
[10] = tested on: MOLT-4 leukemia
[11] = tested on: U251 CNS
[12] = tested on: NCI-H226 lung
[13] = tested on: HT29 colon
[14] = tested on: HCT-116 colon
[15] = tested on: HCC-2998 colon
[16] = tested on: SR leukemia
[17] = tested on: DU-145 prostate
[18] = tested on: SF-268 CNS
[19] = tested on: HL-60(TB) leukemia
[20] = tested on: BT-549 breast
[21] = tested on: MDA-MB-468 breast
[22] = tested on: K-562 leukemia
[23] = tested on: CAKI-1 renal
[24] = tested on: SK-MEL-2 melanoma
[25] = tested on: SNB-75 CNS
[26] = tested on: NCI-H23 lung
[27] = tested on: MDA-MB-231 breast
[28] = tested on: SW-620 colon
[29] = tested on: NCI-H522 lung
[30] = tested on: SN12C renal
[31] = tested on: HOP-62 NSCLC
[32] = tested on: SF-539 CNS
[33] = tested on: OVCAR-8 ovarian
[34] = tested on: KM12 colon
[35] = tested on: SNB-19 CNS
[36] = tested on: UACC-62 melanoma
[37] = tested on: M14 melanoma
[38] = tested on: HCT-15 colon
[39] = tested on: A549 NSCLC
[40] = tested on: SF-295 CNS
[41] = tested on: NCI-H460 lung
[42] = tested on: UACC-257 melanoma
[43] = tested on: MCF7 breast
[44] = tested on: EKVX NSCLC
[45] = tested on: OVCAR-3 ovarian
[46] = tested on: PC-3 prostate
[47] = tested on: SK-MEL-5 melanoma
[48] = tested on: HOP-92 NSCLC
[49] = tested on: MALME-3M melanoma
[50] = tested on: LOX IMVI melanoma
[51] = tested on: SK-MEL-28 melanoma
[52] = tested on: COLO 205 colon
[53] = tested on: SK-OV-3 ovarian
[54] = tested on: NCI/ADR-RES ovarian
[55] = tested on: RPMI-8226 leukemia
[56] = tested on: CCRF-CEM leukemia
[57] = tested on: MDA-MB-435
[58] = tested on: UO-31 renal
[59] = tested on: IGROV1 ovarian

SMILES: CC12CCC3(CCC(=O)NCCCNc4ccnc5cc(Cl)ccc45)[C@@](C)(OO[C@]3(C)O1)O2
- GI50 [1]: 1160 nM
- TGI [1]: 6.73 µM
- GI50 [2]: 1790 nM
- TGI [2]: 8.62 µM
- GI50 [3]: 4.89 µM
- TGI [3]: > 25.5 µM
- GI50 [4]: 4.2 µM
- TGI [4]: 16 µM
- GI50 [5]: 646 nM
- TGI [5]: 2740 nM
- GI50 [6]: 3.86 µM
- TGI [6]: 22.7 µM
- GI50 [7]: 5.99 µM
- TGI [7]: > 25.5 µM
- GI50 [8]: 1230 nM
- TGI [8]: 11.3 µM
- GI50 [9]: 3 µM
- TGI [9]: 14.1 µM
- GI50 [10]: 4.68 µM
- TGI [10]: 14.3 µM
- GI50 [11]: 4.45 µM
- TGI [11]: 11.6 µM
- GI50 [12]: 1720 nM
- TGI [12]: 15 µM
- GI50 [13]: 6.19 µM
- TGI [13]: 23.3 µM
- GI50 [14]: 3.71 µM
- TGI [14]: 13.3 µM
- GI50 [15]: 8.01 µM
- TGI [15]: > 25.5 µM
- GI50 [16]: 3.66 µM
- TGI [16]: 16.3 µM
- GI50 [17]: 3.42 µM
- TGI [17]: 11.9 µM
- GI50 [18]: 2090 nM
- TGI [18]: 8.55 µM
- GI50 [19]: 4.94 µM
- TGI [19]: 11.7 µM
- GI50 [20]: 5.28 µM
- TGI [20]: 15.5 µM
- GI50 [21]: 4.05 µM
- TGI [21]: 9.17 µM
- GI50 [22]: 5.55 µM
- TGI [22]: > 25.5 µM
- GI50 [23]: 951 nM
- TGI [23]: 4.75 µM
- GI50 [24]: 8.21 µM
- TGI [24]: > 25.5 µM
- GI50 [25]: 618 nM
- TGI [25]: 3.77 µM
- GI50 [26]: 3.77 µM
- TGI [26]: 11.8 µM
- GI50 [27]: 1400 nM
- TGI [27]: 9.92 µM
- GI50 [28]: 3.62 µM
- TGI [28]: > 25.5 µM
- GI50 [29]: 3.02 µM
- TGI [29]: 6.79 µM
- GI50 [30]: 2140 nM
- TGI [30]: 12.2 µM
- GI50 [31]: 1410 nM
- TGI [31]: 6.48 µM
- GI50 [32]: 3.38 µM
- TGI [32]: 7.38 µM
- GI50 [33]: 4.92 µM
- TGI [33]: 12.7 µM
- GI50 [34]: 4.5 µM
- TGI [34]: 24.2 µM
- GI50 [35]: 7.12 µM
- TGI [35]: > 25.5 µM
- GI50 [36]: 5.58 µM
- TGI [36]: > 25.5 µM
- GI50 [37]: 4.36 µM
- TGI [37]: 17.4 µM
- GI50 [38]: 7.9 µM
- TGI [38]: > 25.5 µM
- GI50 [39]: 2990 nM
- TGI [39]: > 25.5 µM
- GI50 [40]: 4.5 µM
- TGI [40]: 15 µM
- GI50 [41]: 2490 nM
- TGI [41]: 11.4 µM
- GI50 [42]: 8.99 µM
- TGI [42]: > 25.5 µM
- GI50 [43]: 1680 nM
- TGI [43]: > 25.5 µM
- GI50 [44]: 1990 nM
- TGI [44]: 19.4 µM
- GI50 [45]: 3.61 µM
- TGI [45]: 10.8 µM
- GI50 [46]: 6.72 µM
- TGI [46]: > 25.5 µM
- GI50 [47]: 4.36 µM
- TGI [47]: 17.2 µM
- GI50 [48]: 1470 nM
- TGI [48]: 12 µM
- GI50 [49]: 4.73 µM
- TGI [49]: 19.6 µM
- GI50 [50]: 1340 nM
- TGI [50]: 4.71 µM
- GI50 [51]: 8.78 µM
- TGI [51]: > 25.5 µM
- GI50 [52]: 4.99 µM
- TGI [52]: > 25.5 µM
- GI50 [53]: 5.46 µM
- TGI [53]: 16.1 µM
- GI50 [54]: 5.84 µM
- TGI [54]: 19.4 µM
- GI50 [55]: 5.86 µM
- TGI [55]: > 25.5 µM
- GI50 [56]: 3.85 µM
- TGI [56]: 11 µM
- GI50 [57]: 4.89 µM
- TGI [57]: > 25.5 µM
- GI50 [58]: 1430 nM
- TGI [58]: 6.78 µM
- GI50 [59]: 2800 nM
- TGI [59]: 8.22 µM
